Results from PubChem BioAssay AID2060503 (Molecular Pharmacology Branch, DTP, NCI, 2025).

Test system: 817829-284-R-J1-PDC complex spheroids, viability
Assay: Anticancer human tumor 817829-284-R-J1-PDC patient-derived colon adenocarcinoma cell line growth inhibition [GQUAD]
Details: for IC50: curve of first compound; for viability, T/C: stronger effect = lower value
Description: DNA G-quadruplex Stabilizer Agents in Combinations in Complex Spheroids
A high-throughput screen of multi-cell type tumor spheroids was designed to identify active combinations of DNA G-quadruplex stabilizer agents and targeted small molecules. Complex spheroids include a stromal component modeled by human endothelial cells (HUVEC) and fibroblasts modeled by human mesenchymal stem cells (MSCs). The concentration ranges selected for each drug and investigational agent were based upon clinically achievable concentrations if the clinical Cmax of the agent was known.
Compounds. The drugs and investigational agents: pidnarulex (CX-5461; NSC782164), APTO-253 (NSC789042), BRACO-19 (NSC847499), peposertib (NSC802822), ceralasertib (NSC780249), elimusertib (NSC800525), camonsertib (NSC841442), AZD-1390 (NSC803789), olaparib (NSC753686), talazoparib (NSC767125), ART-558 (NSC835418), sotorasib (NSC818433), MRTX-1133 (NSC836407), SN-38 (NSC673596), topotecan (NSC609699), etoposide (NSC141540), doxorubicin (NSC123127), gemcitabine (NSC613327), 5-fluorouracil (NSC19893), paclitaxel (NSC125973), vemurafenib (NSC761431), panobinostat (NSC761190), R-306465 (JNJ-16241199; NSC773264), adavosertib (NSC754352), TP-3654 (NSC805149), carboplatin (NSC241240), KSQ-4279 (NSC840948), and staurosporine (NSC755774) were obtained from the National Cancer Institute (NCI) Developmental Therapeutics Program Chemical Repository (34). The FDA-approved anticancer drug set is available from the NCI Developmental Therapeutics Program. […] The stock solutions were prepared in dimethyl sulfoxide (DMSO, Sigma-Aldrich, St. Louis, MO, cat. D2650) at 800-fold the tested concentration and stored at -70 degrees C prior to their use. All drugs and investigational agents were tested over a range starting from a high concentration at or near the clinical Cmax and decreasing in half-log increments. If the clinical Cmax for an agent had not been determined, the highest concentration tested was 10 microM.
2.3 Cell Culture. All cells were maintained in an incubator at 37 degrees C and 5% CO2 with 95% humidity. The PDC lines were cultured according to standard operating procedures established by the NCI PDMR. All PDCs were thawed and cultured in Matrigel-coated flasks prepared with a working solution of 1X Ham's F-12 nutrient mix, without supplementation (Invitrogen, cat. 11765054), 100 U/mL penicillin-streptomycin (Invitrogen, cat. 15140122), and 2.5% Matrigel (Corning Inc., cat. 354248) for the first three passages. The 857933-349-R-J2-PDC line was cultured in 6C/Colon 1B media, which includes advanced DMEM/F-12 (Thermo Fisher Scientific, cat. 12634028), 10 mM HEPES (Thermo Fisher Scientific, cat. 15630080), 1X GlutaMAX supplement (Thermo Fisher Scientific, cat. 35050061), 0.1 mg/mL primocin (InvivoGen, cat. ant-pm-2), 10% defined fetal bovine serum, heat inactivated (HyClone Laboratories Inc., cat. SH30070.03HI), 50% L-WRN conditioned media (ATCC, cat. CRL-3276), 1.25 mM N-Acetyl-L-cysteine (Sigma-Aldrich, cat. A9165), 10 mM nicotinamide (Sigma-Aldrich, cat. N0636), 1X B-27 supplement (Thermo Fisher Scientific, cat. 17504044), 1X N-2 supplement (Thermo Fisher Scientific, cat. 17502048), 10 microM Y-27632 dihydrochloride (Tocris Bioscience, cat. 1254), and 50 ng/mL human EGF recombinant protein (Thermo Fisher Scientific, cat. PHG0311). The 485176-168-R4-J1-PDC line was cultured in Panc media, which includes all 6C/Colon 1B media components plus 100 ng/mL human FGF-10 (Thermo Fisher Scientific, cat. 100-26), 500 nM SB-431542 (Selleckchem, cat. S1067), and gastrin (Tocris, cat. 3006).
[…]

[1] = second compound 0.0316 µM, first compound 0.0316 µM
[2] = second compound 0.0316 µM, first compound 0.316 µM
[3] = second compound 0.1 µM, first compound 0.0316 µM
[4] = second compound 0.1 µM, first compound 0.316 µM
[5] = second compound 0.316 µM, first compound 0.0316 µM
[6] = second compound 0.316 µM, first compound 0.316 µM
[7] = second compound 1 µM, first compound 0.0316 µM
[8] = second compound 1 µM, first compound 0.316 µM
[9] = second compound 3.16 µM, first compound 0.0316 µM
[10] = second compound 3.16 µM, first compound 0.316 µM
[11] = second compound 10 µM, first compound 0.0316 µM
[12] = second compound 10 µM, first compound 0.316 µM
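Also: spheroids exposed to agents for 7 days before readout.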
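For viability, T/C in this document: percent viability relative to DMSO vehicle control taken as 100%.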

CCCS(=O)(=O)Nc1ccc(F)c(C(=O)c2c[nH]c3ncc(-c4ccc(Cl)cc4)cc23)c1F + Cc1[nH]c2ccc(F)cc2c1-c1nc2c3cccnc3c3ncccc3c2[nH]1
IC50 (second compound 0.0316 µM): 5840 nM
IC50 (second compound 0.1 µM): 5380 nM
IC50 (second compound 0.316 µM): 5840 nM
IC50 (second compound 1 µM): 5480 nM
IC50 (second compound 3.16 µM): 67 nM
IC50 (second compound 10 µM): 54.9 nM
viability, T/C [1]: 107%
viability, T/C (second compound 0.0316 µM, first compound 0.1 µM): 106%
viability, T/C [2]: 102%
viability, T/C (second compound 0.0316 µM, first compound 1 µM): 107%
viability, T/C (second compound 0.0316 µM, first compound 3.16 µM): 85%
viability, T/C (second compound 0.0316 µM, first compound 10 µM): 19.3%
viability, T/C [3]: 117%
viability, T/C (second compound 0.1 µM, first compound 0.1 µM): 107%
viability, T/C [4]: 111%
viability, T/C (second compound 0.1 µM, first compound 1 µM): 95.4%
viability, T/C (second compound 0.1 µM, first compound 3.16 µM): 74.1%
viability, T/C (second compound 0.1 µM, first compound 10 µM): 22.6%
viability, T/C [5]: 102%
viability, T/C (second compound 0.316 µM, first compound 0.1 µM): 113%
viability, T/C [6]: 106%
viability, T/C (second compound 0.316 µM, first compound 1 µM): 92%
viability, T/C (second compound 0.316 µM, first compound 3.16 µM): 84.9%
viability, T/C (second compound 0.316 µM, first compound 10 µM): 21.6%
viability, T/C [7]: 117%
viability, T/C (second compound 1 µM, first compound 0.1 µM): 106%
viability, T/C [8]: 119%
viability, T/C (second compound 1 µM, first compound 1 µM): 101%
viability, T/C (second compound 1 µM, first compound 3.16 µM): 80.8%
viability, T/C (second compound 1 µM, first compound 10 µM): 16.9%
viability, T/C [9]: 60.6%
viability, T/C (second compound 3.16 µM, first compound 0.1 µM): 40.4%
viability, T/C [10]: 38%
viability, T/C (second compound 3.16 µM, first compound 1 µM): 23.6%
viability, T/C (second compound 3.16 µM, first compound 3.16 µM): 21.1%
viability, T/C (second compound 3.16 µM, first compound 10 µM): 10.1%
viability, T/C [11]: 67.5%
viability, T/C (second compound 10 µM, first compound 0.1 µM): 30.9%
viability, T/C [12]: 12%
viability, T/C (second compound 10 µM, first compound 1 µM): 5.4%
viability, T/C (second compound 10 µM, first compound 3.16 µM): 4.9%
viability, T/C (second compound 10 µM, first compound 10 µM): 5.95%

CCc1c2c(nc3ccc(O)cc13)-c1cc3c(c(=O)n1C2)COC(=O)[C@]3(O)CC + Cc1[nH]c2ccc(F)cc2c1-c1nc2c3cccnc3c3ncccc3c2[nH]1
IC50 (second compound 0.0316 µM): 1.74 nM
IC50 (second compound 0.1 µM): 1.01 nM
IC50 (second compound 0.316 µM): < 0.999 nM
IC50 (second compound 1 µM): < 0.999 nM
IC50 (second compound 3.16 µM): < 0.999 nM
IC50 (second compound 10 µM): < 0.999 nM
viability, T/C (second compound 0.0316 µM, first compound 0.000999 µM): 65.2%
viability, T/C (second compound 0.0316 µM, first compound 0.00316 µM): 28.1%
viability, T/C (second compound 0.0316 µM, first compound 0.00999 µM): 30.3%
viability, T/C [1]: 13.1%
viability, T/C (second compound 0.0316 µM, first compound 0.0999 µM): 8.01%
viability, T/C [2]: 4.19%
viability, T/C (second compound 0.1 µM, first compound 0.000999 µM): 51.3%
viability, T/C (second compound 0.1 µM, first compound 0.00316 µM): 33.6%
viability, T/C (second compound 0.1 µM, first compound 0.00999 µM): 27.8%
viability, T/C [3]: 14.9%
viability, T/C (second compound 0.1 µM, first compound 0.0999 µM): 9.56%
viability, T/C [4]: 4.38%
viability, T/C (second compound 0.316 µM, first compound 0.000999 µM): 43.5%
viability, T/C (second compound 0.316 µM, first compound 0.00316 µM): 35.6%
viability, T/C (second compound 0.316 µM, first compound 0.00999 µM): 23.6%
viability, T/C [5]: 16.7%
viability, T/C (second compound 0.316 µM, first compound 0.0999 µM): 8.62%
viability, T/C [6]: 5.24%
viability, T/C (second compound 1 µM, first compound 0.000999 µM): 43%
viability, T/C (second compound 1 µM, first compound 0.00316 µM): 30.6%
viability, T/C (second compound 1 µM, first compound 0.00999 µM): 24.6%
viability, T/C [7]: 15%
viability, T/C (second compound 1 µM, first compound 0.0999 µM): 8.8%
viability, T/C [8]: 4.41%
viability, T/C (second compound 3.16 µM, first compound 0.000999 µM): 30.3%
viability, T/C (second compound 3.16 µM, first compound 0.00316 µM): 16.4%
viability, T/C (second compound 3.16 µM, first compound 0.00999 µM): 13.8%
viability, T/C [9]: 10.8%
viability, T/C (second compound 3.16 µM, first compound 0.0999 µM): 5.28%
viability, T/C [10]: 2.61%
viability, T/C (second compound 10 µM, first compound 0.000999 µM): 6.96%
viability, T/C (second compound 10 µM, first compound 0.00316 µM): 7.65%
viability, T/C (second compound 10 µM, first compound 0.00999 µM): 4.74%
viability, T/C [11]: 5.66%
viability, T/C (second compound 10 µM, first compound 0.0999 µM): 3.66%
viability, T/C [12]: 1.35%
